Reference: ChEMBL document CHEMBL4052722, “Virtual screening, synthesis and biological evaluation of DNA intercalating antiviral agents” (Bioorg Med Chem Lett, 2017)

test system: Vesicular stomatitis virus; test: Antiviral activity against Vesicular stomatitis virus at 0.2 to 620 uM after 24 hrs post infection relative to control; type: functional

Question: How did the Activity turn out when c1ccc2nc3c(nc2c1)c1ccccc1n3CCCCCN1CCCCC1 was run?
Answer: 89%

Question: For CC1CCCCN1CCCCn1c2ccccc2c2nc3ccccc3nc21 (stereo not drawn), which Activity is on record?
Answer: 26%

Question: How did the Activity turn out when CCN(CC)CCOC(=O)Cn1c2ccccc2c2nc3ccccc3nc21 was run?
Answer: 45%

Question: O=C(CN1CCCCC1)N/N=C1\C(=O)Nc2ccccc21 was tested. Which Activity did it give?
Answer: 100%

Question: With c1ccc2nc3c(nc2c1)c1ccccc1n3CCCCN1CCCCC1 as the compound, how does the Activity read?
Answer: 11%

Question: Which Activity does the source give for CCCN(CCC)CCCn1c2ccccc2c2nc3ccccc3nc21 here?
Answer: 41%

Question: How did the Activity turn out when CCCN(CCC)CCCCn1c2ccccc2c2nc3ccccc3nc21 was run?
Answer: 13%

Question: With CCCN(CCC)CCn1c2ccccc2c2nc3ccccc3nc21 as the compound, how does the Activity read?
Answer: 90%

Question: Which Activity does the source give for CN(C)CCn1c2ccccc2c2nc3c(nc21)CCCC3 here?
Answer: 88%

Question: CN1CCN(CCn2c3ccccc3c3nc4c(nc32)CCCC4)CC1 was tested. Which Activity did it give?
Answer: 100%

Question: For CC1CCN(CCn2c3ccccc3c3nc4c(nc32)CCCC4)CC1, which Activity is on record?
Answer: 95%

organism: Bos taurus; test: Displacement of ethidium bromide from calf thymus DNA by fluorescence binding assay

Question: How did the log Ka turn out when CCN(CC)CCNC(=O)CN1C(=O)c2cccc3cccc(c23)C1=O was run?
Answer: 5.54

Question: With CCN(CC)CCCNC(=O)CN1C(=O)c2cccc3cccc(c23)C1=O as the compound, how does the log Ka read?
Answer: 5.31

Question: For O=C1c2cccc3cccc(c23)C(=O)N1NCCN1CCOCC1, which log Ka is on record?
Answer: 5.38

Question: Which log Ka does the source give for CCN(CC)CCCNC(=O)c1cc2c(ccc3ccccc32)o1 here?
Answer: 6.12

Question: CN(C)CCCNC(=O)CN1C(=O)c2cccc3cccc(c23)C1=O was tested. Which log Ka did it give?
Answer: 5.63

Question: How did the log Ka turn out when CN(C)CCCN1C(=O)c2cccc3cccc(c23)C1=O was run?
Answer: 7.07

Question: For CCN(CC)CC(=O)NN1C(=O)c2cccc3cccc(c23)C1=O, which log Ka is on record?
Answer: 5.6

Question: How did the log Ka turn out when CCN(CC)CCCN1C(=O)c2cccc3cccc(c23)C1=O was run?
Answer: 6.57

Question: How did the log Ka turn out when O=C(CN1CCOCC1)NN1C(=O)c2cccc3cccc(c23)C1=O was run?
Answer: 5.34

Question: For CN(C)CCCNC(=O)c1cc2c(ccc3ccccc32)o1, which log Ka is on record?
Answer: 5.48

Question: How did the log Ka turn out when CCN(CC)CCN1C(=O)/C(=N/NC(=O)CCN2CCCCCC2)c2ccccc21 was run?
Answer: 6.03

Question: How did the log Ka turn out when O=C(CCCn1c2ccccc2c2nc3ccccc3nc21)NCCN1CCNCC1 was run?
Answer: 4.97

Question: CNCCCN1C(=O)c2cccc3cccc(c23)C1=O was tested. Which log Ka did it give?
Answer: 5.57

Question: O=C(CN1C(=O)c2cccc3cccc(c23)C1=O)NCCCN1CCOCC1 was tested. Which log Ka did it give?
Answer: 5.46

Question: How did the log Ka turn out when CN1CCN(CCCCCCn2c3ccccc3c3nc4ccccc4nc32)CC1 was run?
Answer: 6.45

Question: Which log Ka does the source give for CN1CCN(CCCCCn2c3ccccc3c3nc4ccccc4nc32)CC1 here?
Answer: 6.23

Question: How did the log Ka turn out when O=C(NCCCN1CCOCC1)c1cc2c(ccc3ccccc32)o1 was run?
Answer: 5.64

Question: O=C(CN1C(=O)c2cccc3cccc(c23)C1=O)NCCN1CCOCC1 was tested. Which log Ka did it give?
Answer: 5.68

Question: c1ccc2nc3c(nc2c1)c1ccccc1n3CCCCCN1CCCCC1 was tested. Which log Ka did it give?
Answer: 5.68

Question: With CCN(CC)CCN1C(=O)/C(=N\NC(=O)CN2CCCCCC2)c2ccccc21 as the compound, how does the log Ka read?
Answer: 6.32

Question: CC1CCCCN1CCCCn1c2ccccc2c2nc3ccccc3nc21 (stereo not drawn) was tested. Which log Ka did it give?
Answer: 5.6

Question: For CCN(CC)CCOC(=O)Cn1c2ccccc2c2nc3ccccc3nc21, which log Ka is on record?
Answer: 5.42

Question: With O=C(CN1CCCCC1)N/N=C1\C(=O)Nc2ccccc21 as the compound, how does the log Ka read?
Answer: 5.64

Question: c1ccc2nc3c(nc2c1)c1ccccc1n3CCCCN1CCCCC1 was tested. Which log Ka did it give?
Answer: 5.93

Question: CCCN(CCC)CCCn1c2ccccc2c2nc3ccccc3nc21 was tested. Which log Ka did it give?
Answer: 6.13

Question: Which log Ka does the source give for CCCN(CCC)CCCCn1c2ccccc2c2nc3ccccc3nc21 here?
Answer: 5.49

Question: For CCCN(CCC)CCn1c2ccccc2c2nc3ccccc3nc21, which log Ka is on record?
Answer: 6.09

Question: O=C(NCCN1CCOCC1)c1cc2c(ccc3ccccc32)o1 was tested. Which log Ka did it give?
Answer: 4.58

Question: O=C1c2cccc3cccc(c23)C(=O)N1CCN1CCCCC1 was tested. Which log Ka did it give?
Answer: 5.29

Question: How did the log Ka turn out when CCN(CC)CCNC(=O)CCCCCN1C(=O)c2cccc3cccc(c23)C1=O was run?
Answer: 5.49

Question: How did the log Ka turn out when O=C(CN1CCOCC1)N/N=C1\C(=O)Nc2ccccc21 was run?
Answer: 5.28

Question: How did the log Ka turn out when CCN(CC)CCN1C(=O)c2cccc3cccc(c23)C1=O was run?
Answer: 6.98

Question: With O=C(CN1CCCC1)N/N=C1\C(=O)Nc2ccccc21 as the compound, how does the log Ka read?
Answer: 5.58

Question: How did the log Ka turn out when O=C(CCCCCN1C(=O)c2cccc3cccc(c23)C1=O)NCCN1CCOCC1 was run?
Answer: 5.53

Question: With O=C(CN1CCCCC1)NN1C(=O)c2cccc3cccc(c23)C1=O as the compound, how does the log Ka read?
Answer: 6.2

Question: Which log Ka does the source give for CN(C)CCCNC(=O)CCCN1C(=O)c2cccc3cccc(c23)C1=O here?
Answer: 5.95

Question: With O=C(CCCn1c2ccccc2c2nc3ccccc3nc21)NCCCNCCO as the compound, how does the log Ka read?
Answer: 5.09

Question: For CN(C)CCCNC(=O)CCN1C(=O)c2cccc3cccc(c23)C1=O, which log Ka is on record?
Answer: 5.92

Question: Which log Ka does the source give for CCN(CC)CCNC(=O)c1cc2c(ccc3ccccc32)o1 here?
Answer: 5.77

Question: How did the log Ka turn out when O=C1c2cccc3cccc(c23)C(=O)N1CCCN1CCOCC1 was run?
Answer: 6.93

Question: For O=C(Cn1c2ccccc2c2nc3ccccc3nc21)NCCN1CCNCC1, which log Ka is on record?
Answer: 5.72

Question: With CCN(CC)CCN1C(=O)/C(=N\NC(=O)CCN2CCOCC2)c2ccccc21 as the compound, how does the log Ka read?
Answer: 6.08

Question: Which log Ka does the source give for CCN(CC)CCCNC(=O)CCCn1c2ccccc2c2nc3ccccc3nc21 here?
Answer: 4.77

Question: How did the log Ka turn out when O=C1c2cccc3cccc(c23)C(=O)N1CCNCCO was run?
Answer: 5.57

Question: c1ccc2nc3c(nc2c1)c1ccccc1n3CCCCCCN1CCCCC1 was tested. Which log Ka did it give?
Answer: 5.95

Question: O=C(CCCn1c2ccccc2c2nc3ccccc3nc21)NCCNCCO was tested. Which log Ka did it give?
Answer: 5.05

Question: How did the log Ka turn out when CCN(CC)CCN1C(=O)/C(=N\NC(=O)CN2CCCCC2)c2ccccc21 was run?
Answer: 5.74
